Measurements from patent US7541351B2, “Compounds for the treatment of hepatitis C” (Bristol-Myers Squibb Company, priority 2007, dated 2009).
pEC50, pIC50: −log10 of the molar value. Where two headings read alike, the source gives them in different places.

Key:
[1] = target: T1, HCV NS5B RdRp genotype 1b (Hepatitis C virus genotype 1b, UniProt Q9WMX2); experiment: Modified HCV NS5B RdRp enzyme assay (preincubation protocol); format: biochemical
T1 construct: The protein was expressed with an 18 amino acid C-terminal truncation to enhance the solubility; made in house; host or cells: E. coli BL21 (DE3)
T1 sequence (Q9WMX2 2420-2992): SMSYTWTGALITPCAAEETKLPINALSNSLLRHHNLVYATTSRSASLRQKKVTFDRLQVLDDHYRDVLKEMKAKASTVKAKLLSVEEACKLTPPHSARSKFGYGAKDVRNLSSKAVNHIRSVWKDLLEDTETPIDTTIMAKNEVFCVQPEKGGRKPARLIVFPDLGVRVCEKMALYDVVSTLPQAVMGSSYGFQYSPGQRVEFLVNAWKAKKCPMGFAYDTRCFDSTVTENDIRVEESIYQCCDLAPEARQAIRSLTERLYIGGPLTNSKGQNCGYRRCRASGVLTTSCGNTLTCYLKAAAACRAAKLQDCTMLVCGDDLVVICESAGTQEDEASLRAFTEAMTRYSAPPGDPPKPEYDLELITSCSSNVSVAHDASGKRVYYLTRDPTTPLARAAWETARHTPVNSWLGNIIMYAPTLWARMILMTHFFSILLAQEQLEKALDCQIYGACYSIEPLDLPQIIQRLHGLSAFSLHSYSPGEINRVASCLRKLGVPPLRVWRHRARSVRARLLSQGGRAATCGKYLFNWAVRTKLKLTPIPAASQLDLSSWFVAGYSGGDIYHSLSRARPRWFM
Description: HCV NS5B RdRp cloning, expression, and purification. The cDNA encoding the NS5B protein of HCV, genotype 1b, was cloned into the pET21a expression vector. The protein was expressed with an 18 amino acid C-terminal truncation to enhance the solubility. The E. coli competent cell line BL21 (DE3) was used for expression of the protein. Cultures were grown at 37° C. for ˜4 hours until the cultures reached an optical density of 2.0 at 600 nm. The cultures were cooled to 20° C. and induced with 1 mM IPTG. Fresh ampicillin was added to a final concentration of 50 μg/ml and the cells were grown overnight at 20° C.
Cell pellets (3 L) were lysed for purification to yield 15-24 mgs of purified NS5B. The lysis buffer consisted of 20 mM Tris-HCl, pH 7.4, 500 mM NaCl, 0.5% triton X-100, 1 mM DTT, 1 mM EDTA, 20% glycerol, 0.5 mg/ml lysozyme, 10 mM MgCl2, 15 ug/ml deoxyribonuclease I, and Complete TM protease inhibitor tablets (Roche). After addition of the lysis buffer, frozen cell pellets were resuspended using a tissue homogenizer. To reduce the viscosity of the sample, aliquots of the lysate were sonicated on ice using a microtip attached to a Branson sonicator. The sonicated lysate was centrifuged at 100,000×g for 1 hr at 4° C. and filtered through a 0.2 μm filter unit (Corning).
The protein was purified using three sequential chromatography steps: Heparin sepharose CL-6B, polyU sepharose 4B, and Hitrap SP sepharose (Pharmacia). The chromatography buffers were identical to the lysis buffer but contained no lysozyme, deoxyribonuclease I, MgCl2 or protease inhibitor and the NaCl concentration of the buffer was adjusted according to the requirements for charging the protein onto the column. Each column was eluted with a NaCl gradient which varied in length from 5-50 column volumes depending on the column type. After the final chromatography step, the resulting purity of the enzyme is >90% based on SDS-PAGE analysis. The enzyme was aliquoted and stored at −80° C.
Standard HCV NS5B RdRp enzyme assay. HCV RdRp genotype 1b assays were run in a final volume of 60 μl in 96 well plates (Costar 3912). The assay buffer is composed of 20 mM Hepes, pH 7.5, 2.5 mM KCl, 2.5 mM MgCl2, 1 mM DTT, 1.6 U RNAse inhibitor (Promega N2515), 0.1 mg/ml BSA (Promega R3961), and 2% glycerol. All compounds were serially diluted (3-fold) in DMSO and diluted further in water such that the final concentration of DMSO in the assay was 2%. HCV RdRp genotype 1b enzyme was used at a final concentration of 28 nM. A polyA template was used at 6 nM, and a biotinylated oligo-dT 12 primer was used at 180 nM final concentration. Template was obtained commercially (Amersham 27-4110). Biotinylated primer was prepared by Sigma Genosys. 3H-UTP was used at 0.6 μCi (0.29 μM total UTP). Reactions were initiated by the addition of enzyme, incubated at 30° C. for 60 min, and stopped by adding 25 μl of 50 mM EDTA containing SPA beads (4 μg/μl, Amersham RPNQ 0007). Plates were read on a Packard Top Count NXT after >1 hr incubation at room temperature.
Modified HCV NS5B RdRp enzyme assay. A modified enzyme assay was performed essentially as described for the standard enzyme assay except for the following: The biotinylated oligo dT12 primer was precaptured on streptavidin-coated SPA beads by mixing primer and beads in assay buffer and incubating at room temperature for one hour. Unbound primer was removed after centrifugation. The primer-bound beads were resuspended in 20 mM Hepes buffer, pH 7.5 and used in the assay at final concentrations of 20 nM primer and 0.67 μg/μl beads. Order of addition in the assay: enzyme (14 nM) was added to diluted compound followed by the addition of a mixture of template (0.2 nM), 3H-UTP (0.6 μCi, 0.29 μM), and primer-bound beads, to initiate the reaction; concentrations given are final. Reactions were allowed to proceed for 4 hours at 30° C.
IC50 values for compounds were determined using seven different [I]. […]

HCV replicon cells = experiment: HCV replicon FRET assay; format: cell-based
Description: FRET Assay Preparation. To perform the HCV FRET screening assay, 96-well cell culture plates were used. The FRET peptide (Anaspec, Inc.) (Taliani et al., Anal. Biochem. 1996, 240, 60-67) contains a fluorescence donor, EDANS, near one end of the peptide and an acceptor, DABCYL, near the other end. The fluorescence of the peptide is quenched by […] resonance energy transfer (RET) between the donor and the acceptor, but as the NS3 protease cleaves the peptide the products are released from RET quenching and the fluorescence of the donor becomes apparent. The assay reagent was made as follows: 5× cell Luciferase cell culture lysis reagent from Promega (#E153A) diluted to 1× with dH2O, NaCl added to 150 mM final, the FRET peptide diluted to 20 μM final from a 2 mM stock.
To prepare plates, HCV replicon cells, with or without a Renilla luciferase reporter gene, were trypsinized and placed into each well of a 96-well plate with titrated test compounds added in columns 3 through 12; columns 1 and 2 contained a control compound (HCV protease inhibitor), and the bottom row contained cells without compound. The plates were then placed in a CO2 incubator at 37° C.
Assays. Subsequent to addition of the test compounds described above (FRET Assay Preparation), at various times the plate was removed and Alamar blue solution (Trek Diagnostics, #00-100) was added per well as a measure of cellular toxicity. After reading in a Cytoflour 4000 instrument (PE Biosystems), plates were rinsed with PBS and then used for FRET assay by the addition of 30 ul of the FRET peptide assay reagent described above (FRET Assay Preparation) per well. The plate was then placed into the Cytoflour 4000 instrument which had been set to 340 excite/490 emission, automatic mode for 20 cycles and the plate read in a kinetic mode. Typically, the signal to noise using an endpoint analysis after the reads was at least three-fold. Alternatively, after Alamar blue reading, plates were rinsed with PBS, 50 ul of DMEM (high glucose) without phenol red was added and plates were then used for luciferase assay using the Promega Dual-Glo Luciferase Assay System.
Compound analysis was determined by quantification of the relative HCV replicon inhibition and the relative cytotoxicity values. To calculate cytoxicity values, the average Alamar Blue fluorescence signals from the control wells were set as 100% non-toxic. The individual signals in each of the compound test wells were then divided by the average control signal and multiplied by 100% to determine […]. To calculate the HCV replicon inhibition values, an average background value was obtained from the two wells containing the highest amount of HCV protease inhibitor at the end of the assay period. These numbers were similar to those obtained from naïve Huh-7 cells.
The background numbers were then subtracted from the average signal obtained from the control wells and this number was used as 100% activity. The individual signals in each of the compound test wells were then divided by the averaged control values after background subtraction and multiplied by 100% to determine percent activity. EC50 values for a protease inhibitor titration were calculated as the concentration which caused a 50% reduction in FRET or luciferase activity. The two numbers generated for the compound plate, percent cytoxicity and percent activity were used to determine compounds of interest for further analysis.

| SMILES | pIC50 [1] | pEC50 (HCV replicon cells; Hepatitis C virus) | pEC50 (HCV replicon cells) |
| --- | --- | --- | --- |
| CN1CC2CCC(C1)N2C(=O)C1=Cc2c(OC(C)(F)F)cccc2-c2c(C3CCCCC3)c3ccc(C(=O)NS(=O)(=O)N(C)C)cc3n2C1 | < 6.30 | < 6.30 |  |
| COc1cccc2c1C=C(C(=O)N1CC3CCC(C1)N3)Cn1c-2c(C2CCCCC2)c2ccc(C(=O)NS(=O)(=O)N(C)C)cc21 | 6.30 to 9.00 | 6.30 to 9.00 |  |
| COC(=O)c1ccc2c(C3CCCCC3)c3n(c2c1)CC(C(=O)N1C2CCC1CN(C)C2)=Cc1c(OC(F)(F)F)cccc1-3 | < 6.30 | < 6.30 |  |
| COc1ccc2c(c1)C=C(C(=O)N1C3CCC1CN(C)C3)Cn1c-2c(C2CCCCC2)c2ccc(C(=O)O)cc21 | 6.30 to 9.00 | 6.30 to 9.00 |  |
| COc1cccc2c1C=C(C(=O)N1CC3CCC(C1)N3C)Cn1c-2c(C2CCCCC2)c2ccc(C(=O)NS(=O)(=O)N(C)C)cc21 | 6.30 to 9.00 | 6.30 to 9.00 |  |
| COc1ccc2c(c1)C=C(C(=O)N1C3CCC1CN(C)C3)Cn1c-2c(C2CCCCC2)c2ccc(C(=O)NS(=O)(=O)C3CC3)cc21 | 6.30 to 9.00 | 6.30 to 9.00 |  |
| COc1ccc2c(c1)C=C(C(=O)N1C3CCC1CN(C1CC1)C3)Cn1c-2c(C2CCCCC2)c2ccc(C(=O)NS(=O)(=O)N(C)C)cc21 | > 7.70 | 6.30 to 9.00 |  |
| COc1ccc2c(c1)C=C(C(=O)N1CC3CCC(C1)N3C)Cn1c-2c(C2CCCCC2)c2ccc(C(=O)NS(=O)(=O)N(C)C)cc21 | 6.30 to 9.00 | 6.30 to 9.00 |  |
| COc1cccc2c1C=C(C(=O)N1C3CCC1CN(C)C3)Cn1c-2c(C2CCCCC2)c2ccc(C(=O)NS(=O)(=O)N(C)C)cc21 | 6.30 to 9.00 | 6.30 to 9.00 |  |
| COC(=O)c1ccc2c(C3CCCCC3)c3n(c2c1)CC(C(=O)N1C2CCC1CN(C)C2)=Cc1cc(OC)ccc1-3 | < 6.30 | < 6.30 |  |
| COc1ccc2c(c1)C=C(C(=O)N1C3CCC1CN(C)C3)Cn1c-2c(C2CCCCC2)c2ccc(C(=O)NS(=O)(=O)N(C)C)cc21 [drawing 25] | 6.30 to 9.00 | 6.30 to 9.00 |  |
| COc1cccc2c1C=C(C(=O)N1CC3CCC(C1)N3C(=O)OC(C)(C)C)Cn1c-2c(C2CCCCC2)c2ccc(C(=O)NS(=O)(=O)N(C)C)cc21 | 6.30 to 9.00 | 6.30 to 9.00 |  |
| CCC(C)S(=O)(=O)NC(=O)c1ccc2c(C3CCCCC3)c3n(c2c1)CC(C(=O)N1C2CCC1CN(C)C2)=Cc1cc(OC)ccc1-3 (stereo not drawn) | 6.30 to 9.00 | 6.30 to 9.00 |  |
| COc1ccc2c(c1)C=C(C(=O)N1CC3CCC(C1)N3C(=O)OC(C)(C)C)Cn1c-2c(C2CCCCC2)c2ccc(C(=O)NS(=O)(=O)N(C)C)cc21 | 6.30 to 9.00 | 6.30 to 9.00 |  |
| COc1ccc2c(c1)C=C(C(=O)N1C3CCC1CN(C)C3)Cn1c-2c(C2CCCCC2)c2ccc(C(=O)NS(=O)(=O)N(C)C)cc21 [drawing 16] | 6.30 to 9.00 |  | 6.30 to 9.00 |
| COc1ccc2c(c1)C=C(C(=O)N1C3CCC1CN(C)C3)Cn1c-2c(C2CCCCC2)c2ccc(C(=O)NS(=O)(=O)C(C)C)cc21 | 6.30 to 9.00 | 6.30 to 9.00 |  |
| COc1ccc2c(c1)C=C(C(=O)N1CC3CCC(C1)N3)Cn1c-2c(C2CCCCC2)c2ccc(C(=O)NS(=O)(=O)N(C)C)cc21 | 6.30 to 9.00 | 6.30 to 9.00 |  |
| COc1ccc2c(c1)CC(C(=O)N1C3CCC1CN(C)C3)Cn1c-2c(C2CCCCC2)c2ccc(C(=O)NS(=O)(=O)N(C)C)cc21 (stereo not drawn) | 6.30 to 9.00 | 6.30 to 9.00 |  |
